In article PMC3905694, “Targeting Low-Druggability Bromodomains: Fragment Based Screening and Inhibitor Design against the BAZ2B Bromodomain” (Journal of Medicinal Chemistry, 2013):

Assays:
[1] = molecular target: T1, BRD2-BD1 (Homo sapiens, UniProt P25440); assay: AlphaScreen fragment screen; format: binding; conditions: fragment library screen
T1 construct: screened against the bromodomains of BRD2-BD1 and CREBBP

[2] = molecular target: T2, CREBBP (Homo sapiens, UniProt Q92793); assay: AlphaScreen fragment screen; format: binding; conditions: fragment library screen
T2 construct: screened against the bromodomains of BRD2-BD1 and CREBBP

[3] = molecular target: T3, BAZ2B bromodomain (Homo sapiens, UniProt Q9UIF8); assay: Direct ITC titrations; format: binding; set-up: successful targeting of the challenging BAZ2B bromodomain; made in house; host or cells: E. coli BL21(DE3); conditions: in words
T3 sequence (Q9UIF8 2060-2164 limits assumed): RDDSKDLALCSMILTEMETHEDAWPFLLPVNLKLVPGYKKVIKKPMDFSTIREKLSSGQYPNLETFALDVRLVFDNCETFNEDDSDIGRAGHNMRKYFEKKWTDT

[4] = Solubility (qualitative remarks); format: physicochemical; conditions: in words
[5] = molecular target: T3, BAZ2B bromodomain; assay: AlphaLISA competitive peptide displacement (antipentahis acceptor beads); conditions: in words

T2 sequence (Q92793 1085-1192 limits assumed): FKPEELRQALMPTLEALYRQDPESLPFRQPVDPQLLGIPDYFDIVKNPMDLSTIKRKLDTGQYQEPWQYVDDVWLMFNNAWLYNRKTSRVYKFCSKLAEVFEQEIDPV
T1 sequence (P25440 74-180 limits assumed): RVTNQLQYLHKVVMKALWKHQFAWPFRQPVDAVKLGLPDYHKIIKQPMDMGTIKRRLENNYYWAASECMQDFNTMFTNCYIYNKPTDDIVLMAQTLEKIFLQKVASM

| SMILES | hit in fragment screen [1] | hit in fragment screen [2] | solubility [4] | other results |
| --- | --- | --- | --- | --- |
| CNC(=O)c1cc(C)n(C)n1 [Compound 5] | hits | hits | – | – |
| CC(=S)N1CCc2[nH]c3ccc(Cl)cc3c2C1 [Compound 38] | – | – | – | binding to the protein [3]: Neither of these bound |
| CNC(=O)N1CCc2[nH]c3ccc(Cl)cc3c2C1 [Compound 40] | – | – | improved solubility | – |
| CC(=O)N1CCc2[nH]c3ccc(Cl)cc3c2C1 [Compound 6] | hits | hits | poor solubility | – |
| NC(=S)N1CCc2[nH]c3ccc(Cl)cc3c2C1 [Compound 39] | – | – | – | binding to the protein [5]: Neither of these bound |
